Data set [1] relates to Puccinia recondita f. Sp. tritici. Put plainly: Puccinia recondita f. sp. tritici / wheat / leaf disc preventative (brown rust). It counts as in vivo. The following applies: foliar, 200 ppm in the applied formulation, compared to untreated control, read-out: disease control. As for the experimental part:
Leaf disks or leaf segments of various plant species are cut from plants grown in a greenhouse. The cut leaf disks or segments are placed in multiwell plates (24-well format) onto water agar. The leaf disks are sprayed with a test solution before (preventative) or after (curative) inoculation. Compounds to be tested are prepared as DMSO solutions (max. 10 mg/ml) which are diluted to the appropriate concentration with 0.025% Tween20 just before spraying. The inoculated leaf disks or segments are incubated under defined conditions (temperature, relative humidity, light, etc.) according to the respective test system. A single evaluation of disease level is carried out 3 to 14 days after inoculation, depending on the pathosystem. Percent disease control relative to the untreated check leaf disks or segments is then calculated. Wheat leaf segments cv. Kanzler were placed on agar in multiwell plates (24-well format) and sprayed with the formulated test compound diluted in water. The leaf disks were inoculated with a spore suspension of the fungus 1 day after application. The inoculated leaf segments were incubated at 19° C. and 75% relative humidity (rh) under a light regime of 12 hours light/12 hours darkness in a climate cabinet and the activity of a compound was assessed as percent disease control compared to untreated when an appropriate level of disease damage appears in untreated check leaf segments (7 to 9 days after application). The following compounds at 200 ppm in the applied formulation give at least 80% disease control in this test when compared to untreated control leaf disks under the same conditions, which show extensive disease development.

For data set [2] the test system is unchanged. As to the kind of experiment: Puccinia recondita f. sp. tritici / wheat / leaf disc curative (brown rust). It is filed as in vivo. The following applies: foliar, 200 ppm in the applied formulation, compared to untreated control, read-out: disease control. As for the experimental part:
(§1) Leaf disks or leaf segments of various plant species are cut from plants grown in a greenhouse. The cut leaf disks or segments are placed in multiwell plates (24-well format) onto water agar. The leaf disks are sprayed with a test solution before (preventative) or after (curative) inoculation. Compounds to be tested are prepared as DMSO solutions (max. 10 mg/ml) which are diluted to the appropriate concentration with 0.025% Tween20 just before spraying. The inoculated leaf disks or segments are incubated under defined conditions (temperature, relative humidity, light, etc.) according to the respective test system. A single evaluation of disease level is carried out 3 to 14 days after inoculation, depending on the pathosystem. Percent disease control relative to the untreated check leaf disks or segments is then calculated.
Wheat leaf segments cv. Kanzler are placed on agar in multiwell plates (24-well format). The leaf segments are then inoculated with a spore suspension of the fungus. Plates were stored in darkness at 19° C. and 75% relative humidity. The formulated test compound diluted in water was applied 1 day after inoculation. The leaf segments were incubated at 19° C. and 75% relative humidity under a light regime of 12 hours light/12 hours darkness in a climate cabinet and the activity of a compound was assessed as percent disease control compared to untreated when an appropriate level of disease damage appears in untreated check leaf segments (6 to 8 days after application).
(§2) The following compounds at 200 ppm in the applied formulation give at least 80% disease control in this test when compared to untreated control leaf disks under the same conditions, which show extensive disease development.

The test system of data set [3] is Glomerella lacenarium (Colletotrichum lacenarium). As to the kind of experiment: Glomerella lacenarium (Colletotrichum lacenarium) liquid culture / cucumber / preventative (anthracnose). It is filed as cell-based. The following applies: 20 ppm in the applied formulation, growth inhibition measured photometrically, compared to untreated control, read-out: disease control. The method, then:
Mycelia fragments or conidia suspensions of a fungus prepared either freshly from liquid cultures of the fungus or from cryogenic storage, are directly mixed into nutrient broth. DMSO solutions of the test compound (max. 10 mg/ml) are diluted with 0.025% Tween20 by a factor of 50 and 10 μl of this solution is pipetted into a microtiter plate (96-well format). The nutrient broth containing the fungal spores/mycelia fragments is then added to give an end concentration of the tested compound. The test plates are incubated in the dark at 24° C. and 96% relative humidity. The inhibition of fungal growth is determined photometrically after 2 to 7 days, depending on the pathosystem, and percent antifungal activity relative to the untreated check is calculated.
Conidia of the fungus from cryogenic storage are directly mixed into nutrient broth (PDB—potato dextrose broth). After placing a (DMSO) solution of test compound into a microtiter plate (96-well format), the nutrient broth containing the fungal spores is added. The test plates are incubated at 24° C. and the inhibition of growth is measured photometrically 3 to 4 days after application.
The following compounds at 20 ppm in the applied formulation give at least 80% disease control in this test when compared to untreated control under the same conditions, which show extensive disease development.

Data set [4] concerns Phakopsora pachyrhizi. As to the kind of experiment: Phakopsora pachyrhizi / soybean / leaf disc preventative (Asian soybean rust). It counts as in vivo. Particulars: foliar, 200 ppm in the applied formulation, compared to untreated control, read-out: disease control. The method, then: as §1
Soybean leaf disks are placed on water agar in multiwell plates (24-well format) and sprayed with the formulated test compound diluted in water. One day after application leaf discs are inoculated by spraying a spore suspension on the lower leaf surface. After an incubation period in a climate cabinet of 24-36 hours in darkness at 20° C. and 75% rh leaf disc are kept at 20° C. with 12 h light/day and 75% rh. The activity of a compound is assessed as percent disease control compared to untreated when an appropriate level of disease damage appears in untreated check leaf disks (12 to 14 days after application).
as §2

Where only a bound is given, the exact number is not on record here.

Broadly, the melting point is the temperature, or range, at which the solid turns liquid.

For `Cc1cc(C(O)(c2ccc(-c3noc(C(F)(F)F)n3)cc2)C(C)C)on1` (stereo not shown) [Compound 2.29, 2-methyl-1-(3-methylisoxazol-5-yl)-1-[4-[5-(trifluoromethyl)-1,2,4-oxadiazol-3-yl]phenyl]propan-1-ol], the pest or weed control at 200 ppm in data set [1] is at least 80%.

Compound `O=C(c1ccc(-c2noc(C(F)(F)F)n2)cc1)c1ncc(C(F)(F)F)s1` [Compound 1.21, [4-[5-(trifluoromethyl)-1,2,4-oxadiazol-3-yl]phenyl]-[5-(trifluoromethyl)thiazol-2-yl]methanone] returned a melting point of 90 to 94 °C.

Take `C=CCC(O)(c1ccc(-c2noc(C(F)(F)F)n2)cc1)c1cc(C)no1` (stereo not shown) [Compound 2.23, 1-(3-methylisoxazol-5-yl)-1-[4-[5-(trifluoromethyl)-1,2,4-oxadiazol-3-yl]phenyl]but-3-en-1-ol]: in data set [2], the pest or weed control at 200 ppm is at least 80%.

In turn, `CCOC(=O)c1cnc(C(=O)c2ccc(-c3noc(C(F)(F)F)n3)cc2)nc1C` [Compound 1.31, ethyl 4-methyl-2-[4-[5-(trifluoromethyl)-1,2,4-oxadiazol-3-yl]benzoyl]pyrimidine-5-carboxylate] gave a melting point of 92 to 93 °C. For the same compound, the inhibition of growth at 20 ppm in data set [3] was at least 80%.

In turn, `C=CCC(O)c1ccc(-c2noc(C(F)(F)F)n2)cc1` (stereo not shown) [Compound 2.17, 1-[4-[5-(trifluoromethyl)-1,2,4-oxadiazol-3-yl]phenyl]but-3-en-1-ol] displayed a melting point of 45 to 48 °C. Besides, in data set [3], the inhibition of growth at 20 ppm was at least 80%. In data set [4], the pest or weed control at 200 ppm was at least 80%.

For `CCC(O)c1ccc(-c2noc(C(F)(F)F)n2)cc1` (stereo not shown) [Compound 2.16, 1-[4-[5-(trifluoromethyl)-1,2,4-oxadiazol-3-yl]phenyl]propan-1-ol], the melting point was in the range of 66 to 68 °C. The inhibition of growth at 20 ppm in data set [3] was at least 80%.

In turn, `CC(C)(C)C(O)c1ccc(-c2noc(C(F)(F)F)n2)cc1` (stereo not shown) [Compound 2.1, 2,2-dimethyl-1-[4-[5-(trifluoromethyl)-1,2,4-oxadiazol-3-yl]phenyl]propan-1-ol] displayed a melting point of 60 to 75 °C. Also, the inhibition of growth at 20 ppm in data set [3] is at least 80%. In data set [4], the pest or weed control at 200 ppm is at least 80%.

`O=C(c1ccc(-c2noc(C(F)(F)F)n2)cc1)c1cscn1` [Compound 1.32, thiazol-4-yl-[4-[5-(trifluoromethyl)-1,2,4-oxadiazol-3-yl]phenyl]methanone]: the melting point fell in the range of 68 to 74 °C. The inhibition of growth at 20 ppm in data set [3] is at least 80%. Besides, the pest or weed control at 200 ppm in data set [4] was at least 80%.

Compound `CCOC(=O)c1csc(C(O)c2ccc(-c3noc(C(F)(F)F)n3)cc2)n1` (stereo not shown) [Compound 2.19, ethyl 2-[hydroxy-[4-[5-(trifluoromethyl)-1,2,4-oxadiazol-3-yl]phenyl]methyl]thiazole-4-carboxylate] displayed a melting point of 118 to 122 °C. Further, the pest or weed control at 200 ppm in data set [1] was at least 80%.

In turn, `O=C(c1ccc(-c2noc(C(F)(F)F)n2)cc1)c1cnc(C(F)(F)F)s1` [Compound 1.23, [4-[5-(trifluoromethyl)-1,2,4-oxadiazol-3-yl]phenyl]-[2-(trifluoromethyl)thiazol-5-yl]methanone] yielded a melting point of 126 to 132 °C.

For the compound `COc1ccc(C(=O)c2ccc(-c3noc(C(F)(F)F)n3)cc2)cn1` [Compound 1.15, (6-methoxy-3-pyridyl)-[4-[5-(trifluoromethyl)-1,2,4-oxadiazol-3-yl]phenyl]methanone], the melting point was in the range of 105 to 110 °C. For the same compound, the inhibition of growth at 20 ppm in data set [3] was at least 80%. Moreover, in data set [4], the pest or weed control at 200 ppm is at least 80%.

Consider `N#CC(O)c1ccc(-c2noc(C(F)(F)F)n2)cc1` (stereo not shown) [Compound 2.11, 2-hydroxy-2-[4-[5-(trifluoromethyl)-1,2,4-oxadiazol-3-yl]phenyl]acetonitrile], for which the melting point fell in the range of 79 to 80 °C. In addition, the inhibition of growth at 20 ppm in data set [3] was at least 80%. Moreover, the pest or weed control at 200 ppm in data set [1] was at least 80%.

Regarding `Cc1cncc(C(=O)c2ccc(-c3noc(C(F)(F)F)n3)cc2)c1` [Compound 1.36, (5-methyl-3-pyridyl)-[4-[5-(trifluoromethyl)-1,2,4-oxadiazol-3-yl]phenyl]methanone], the melting point was 80 to 84 °C.

Regarding `OC(c1ccc(-c2noc(C(F)(F)F)n2)cc1)c1ccc(F)cc1F` (stereo not shown) [Compound 2.15, (2,4-difluorophenyl)-[4-[5-(trifluoromethyl)-1,2,4-oxadiazol-3-yl]phenyl]methanol], the inhibition of growth at 20 ppm in data set [3] is at least 80%. In addition, the pest or weed control at 200 ppm in data set [4] and in data set [1] was at least 80% throughout.

`O=C(c1ccc(-c2noc(C(F)(F)F)n2)cc1)c1cnn(C(F)(F)F)c1` [Compound 1.26, [4-[5-(trifluoromethyl)-1,2,4-oxadiazol-3-yl]phenyl]-[1-(trifluoromethyl)pyrazol-4-yl]methanone]: the melting point was in the range of 98 to 102 °C. The pest or weed control at 200 ppm in data set [4] was at least 80%.

`CCOC(=O)c1cc(C(=O)c2ccc(-c3noc(C(F)(F)F)n3)cc2)on1` [Compound 1.22, ethyl 5-[4-[5-(trifluoromethyl)-1,2,4-oxadiazol-3-yl]benzoyl]isoxazole-3-carboxylate] had a melting point of 197 to 200 °C. Besides, the inhibition of growth at 20 ppm in data set [3] was at least 80%.

`O=C(c1ccc(-c2noc(C(F)(F)F)n2)cc1)c1cccc(OC(F)F)c1` [Compound 1.29, [3-(difluoromethoxy)phenyl]-[4-[5-(trifluoromethyl)-1,2,4-oxadiazol-3-yl]phenyl]methanone]: the melting point is 85 to 88 °C. Further, in data set [3], the inhibition of growth at 20 ppm is at least 80%. For the same compound, in data set [4], the pest or weed control at 200 ppm is at least 80%.

For `O=C(c1ccc(-c2noc(C(F)(F)F)n2)cc1)c1ccc(F)cc1F` [Compound 1.28, (2,4-difluorophenyl)-[4-[5-(trifluoromethyl)-1,2,4-oxadiazol-3-yl]phenyl]methanone], the melting point is 92 to 95 °C. Also, the inhibition of growth at 20 ppm in data set [3] is at least 80%. For the same compound, in data set [4], the pest or weed control at 200 ppm was at least 80%.

The compound `CCOC(=O)c1cnn(CC(=O)c2ccc(-c3noc(C(F)(F)F)n3)cc2)c1` [Compound 1.19, ethyl 1-[2-oxo-2-[4-[5-(trifluoromethyl)-1,2,4-oxadiazol-3-yl]phenyl]ethyl]pyrazole-4-carboxylate] displayed a melting point of 153.6 to 156.1 °C.

`CCCCC(=O)c1ccc(-c2noc(C(F)(F)F)n2)cc1` [Compound 1.5, 1-[4-[5-(trifluoromethyl)-1,2,4-oxadiazol-3-yl]phenyl]pentan-1-one] showed a melting point of 57 to 61 °C. Also, the inhibition of growth at 20 ppm in data set [3] was at least 80%.

With `CCOC(=O)c1csc(C(=O)c2ccc(-c3noc(C(F)(F)F)n3)cc2)n1` [Compound 1.25, ethyl 2-[4-[5-(trifluoromethyl)-1,2,4-oxadiazol-3-yl]benzoyl]thiazole-4-carboxylate], the melting point lay within 78 to 82 °C.

The record behind these values is patent US11026427B2, “Microbiocidal oxadiazole derivatives” (SYNGENTA PARTICIPATIONS AG, priority 2016, dated 2021).
